Common to all, as to assay: HIV-1 RT Assay
For experiment [1], the target named is T1, Gag-Pol polyprotein [600-1027,R876K]/[600-1155] (Human immunodeficiency virus 1, UniProt P03366, R876K).
T1 construct: 600-1027; 600-1155

The target of experiment [2] is T2, Gag-Pol polyprotein [600-1027,Y780C]/[600-1155,Y780C] (Human immunodeficiency virus 1, UniProt P03366, Y780C).
T2 construct: 600-1027; 600-1155

Experiment [3] deals with T3, Gag-Pol polyprotein [600-1027,Y787L]/[600-1155,Y787L] (Human immunodeficiency virus 1, UniProt P03366, Y787L).
T3 construct: 600-1027; 600-1155

In experiment [4] the target is T4, Gag-Pol polyprotein [600-1027,G789A]/[600-1155,G789A] (Human immunodeficiency virus 1, UniProt P03366, G789A).
T4 construct: 600-1027; 600-1155

Experiment [5] addresses T5, Gag-Pol polyprotein [600-1027,K702N]/[600-1155,K702N] (Human immunodeficiency virus 1, UniProt P03366, K702N).
T5 construct: 600-1027; 600-1155

Experiment [6] addresses T6, Gag-Pol polyprotein [600-1027,P835L]/[600-1155,P835L] (Human immunodeficiency virus 1, UniProt P03366, P835L).
T6 construct: 600-1027; 600-1155

For experiment [7], the target named is T7, Gag-Pol polyprotein [600-1027,V705A]/[600-1155,V705A] (Human immunodeficiency virus 1, UniProt P03366, V705A).
T7 construct: 600-1027; 600-1155

A value given as a limit tells only on which side of the number the result lay.

Regarding `CCN1c2ncc(/C=C/C(=O)OC)cc2C(=O)N(C)c2cccnc21` [methyl (2E)-3-{2-ethyl-9-methyl-10-oxo-2,4,9,15-tetraazatricyclo[9.4.0.0^{3,8}]pentadeca-1(11),3,5,7,12,14-hexaen-13-yl}prop-2-enoate], the IC50 in experiment [1] (pH 7.8, 22 °C) was greater than 1000 nM. On to `CCN1c2ncc(CCc3cncnc3)cc2C(=O)N(C)c2cccnc21` [2-ethyl-9-methyl-13-[2-(pyrimidin-5-yl)ethyl]-2,4,9,15-tetraazatricyclo[9.4.0.0^{3,8}]pentadeca-1(11),3,5,7,12,14-hexaen-10-one], for which the IC50 in experiment [2] and in experiment [3] was greater than 1000 nM throughout.

Regarding `CCN1c2ncc(Cl)cc2C(=O)N(C)c2cccnc21` [13-chloro-2-ethyl-9-methyl-2,4,9,15-tetraazatricyclo[9.4.0.0^{3,8}]pentadeca-1(11),3,5,7,12,14-hexaen-10-one], in experiment [2] (pH 7.8, 22 °C), the IC50 was greater than 1000 nM. Turning to `CCN1c2ncc(CCc3ccccc3)cc2C(=O)N(C)c2ccc(Cl)nc21` [2,8-Substituted Dipyridodiazepinone 36], the IC50 in experiment [4] worked out at 120 nM; in experiment [5], 50 nM; in experiment [6], 710 nM; in experiment [7], 840 nM. Turning to `CCN1c2ncc(C(=O)O)cc2C(=O)N(C)c2cccnc21` [2-ethyl-9-methyl-10-oxo-2,4,9,15-tetraazatricyclo[9.4.0.0^{3,8}]pentadeca-1(11),3,5,7,12,14-hexaene-13-carboxylic acid], in experiment [1] (pH 7.8, 22 °C), the IC50 is greater than 1000 nM.

For the compound `CCN1c2ncc(C)cc2C(=O)N(C)c2cccnc21` [2-ethyl-9,13-dimethyl-2,4,9,15-tetraazatricyclo[9.4.0.0^{3,8}]pentadeca-1(11),3,5,7,12,14-hexaen-10-one], the IC50 in experiment [2] (pH 7.8, 22 °C) is greater than 1000 nM.

`CCN1c2ncc(N)cc2C(=O)N(C)c2cccnc21` [13-amino-2-ethyl-9-methyl-2,4,9,15-tetraazatricyclo[9.4.0.0^{3,8}]pentadeca-1(11),3,5,7,12,14-hexaen-10-one] returned an IC50 in experiment [1] (pH 7.8, 22 °C) of 100 nM.

Turning to `CCN1c2ncc(CCc3ccncc3)cc2C(=O)N(C)c2cccnc21` [2-ethyl-9-methyl-13-[2-(pyridin-4-yl)ethyl]-2,4,9,15-tetraazatricyclo[9.4.0.0^{3,8}]pentadeca-1(11),3,5,7,12,14-hexaen-10-one], the IC50 in experiment [1] is 50 nM; in experiment [2] it was 130 nM; in experiment [3] it was greater than 1000 nM. With `CCN1c2ncc(CCc3ccccn3)cc2C(=O)N(C)c2cccnc21` [2-ethyl-9-methyl-13-[2-(pyridin-2-yl)ethyl]-2,4,9,15-tetraazatricyclo[9.4.0.0^{3,8}]pentadeca-1(11),3,5,7,12,14-hexaen-10-one], the IC50 in experiment [2] and in experiment [3] was greater than 1000 nM throughout. `CCN1c2ncc(-c3cccc(OC)c3)cc2C(=O)N(C)c2cccnc21` [2-ethyl-13-(3-methoxyphenyl)-9-methyl-2,4,9,15-tetraazatricyclo[9.4.0.0^{3,8}]pentadeca-1(11),3,5,7,12,14-hexaen-10-one]: the 50% inhibitory concentration (IC50) in experiment [1] (pH 7.8, 22 °C) is greater than 1000 nM; in experiment [2] (pH 7.8, 22 °C), greater than 1000 nM.

In the case of `CCN1c2ncc(CCc3ccc(C)cc3)cc2C(=O)N(C)c2cccnc21` [2-ethyl-9-methyl-13-[2-(4-methylphenyl)ethyl]-2,4,9,15-tetraazatricyclo[9.4.0.0^{3,8}]pentadeca-1(11),3,5,7,12,14-hexaen-10-one], the IC50 in experiment [1] is 100 nM; in experiment [3] it was greater than 1000 nM. On the same counts, the results for `CCN1c2ncc(CCc3cccnc3)cc2C(=O)N(C)c2cccnc21` [2-ethyl-9-methyl-13-[2-(pyridin-3-yl)ethyl]-2,4,9,15-tetraazatricyclo[9.4.0.0^{3,8}]pentadeca-1(11),3,5,7,12,14-hexaen-10-one] are 30 nM and greater than 1000 nM. `CCN1c2ncc(CCc3cccc(N=[N+]=[N-])c3)cc2C(=O)N(C)c2ccc(Cl)nc21` [13-[2-(3-azidophenyl)ethyl]-5-chloro-2-ethyl-9-methyl-2,4,9,15-tetraazatricyclo[9.4.0.0^{3,8}]pentadeca-1(15),3(8),4,6,11,13-hexaen-10-one] showed an IC50 in experiment [3] greater than 1000 nM. On the same count and under the same terms, under `CCN1c2ncc(CCc3nccs3)cc2C(=O)N(C)c2cccnc21` [2-ethyl-9-methyl-13-[2-(1,3-thiazol-2-yl)ethyl]-2,4,9,15-tetraazatricyclo[9.4.0.0^{3,8}]pentadeca-1(11),3,5,7,12,14-hexaen-10-one] stands greater than 1000 nM; under `CCN1c2ncc(CCc3cccc(N)c3)cc2C(=O)N(C)c2cccnc21` [13-[2-(3-aminophenyl)ethyl]-2-ethyl-9-methyl-2,4,9,15-tetraazatricyclo[9.4.0.0^{3,8}]pentadeca-1(15),3(8),4,6,11,13-hexaen-10-one], greater than 1000 nM; under `CCN1c2ncc(CCc3cccc(C)c3)cc2C(=O)N(C)c2cccnc21` [2-ethyl-9-methyl-13-[2-(3-methylphenyl)ethyl]-2,4,9,15-tetraazatricyclo[9.4.0.0^{3,8}]pentadeca-1(11),3,5,7,12,14-hexaen-10-one], greater than 1000 nM. Same read-out and setting: under `CCN1c2ncc(CCc3ccc(N)cc3)cc2C(=O)N(C)c2ccc(Cl)nc21` [13-[2-(4-aminophenyl)ethyl]-5-chloro-2-ethyl-9-methyl-2,4,9,15-tetraazatricyclo[9.4.0.0^{3,8}]pentadeca-1(15),3(8),4,6,11,13-hexaen-10-one] stands greater than 1000 nM. Take `CCN1c2ncc(CCc3ccccc3)cc2C(=O)N(C)c2ccc(-c3ccc[nH]3)nc21` [2-ethyl-9-methyl-13-(2-phenylethyl)-5-(1H-pyrrol-2-yl)-2,4,9,15-tetraazatricyclo[9.4.0.0^{3,8}]pentadeca-1(15),3(8),4,6,11,13-hexaen-10-one]: the results for the IC50 in experiment [1], in experiment [2] and in experiment [3] were 590 nM, 520 nM and 1280 nM, respectively. On the same counts, the results for `CCN1c2ncc(CCc3ccccc3C)cc2C(=O)N(C)c2ccc(Cl)nc21` [5-chloro-2-ethyl-9-methyl-13-[2-(2-methylphenyl)ethyl]-2,4,9,15-tetraazatricyclo[9.4.0.0^{3,8}]pentadeca-1(15),3(8),4,6,11,13-hexaen-10-one] are greater than 1000 nM, greater than 1000 nM and greater than 1000 nM.

In the case of `CCN1c2ncc(CCc3ccncc3)cc2C(=O)N(C)c2ccc(Cl)nc21` [2,8-Substituted Dipyridodiazepinone 37], the IC50 in experiment [4] was 30 nM; in experiment [5], 120 nM; in experiment [6] it was 110 nM; in experiment [7], 550 nM.

Consider `CCN1c2ncc(CCc3ccc4ccccc4c3)cc2C(=O)N(C)c2ccc(Cl)nc21` [5-chloro-2-ethyl-9-methyl-13-[2-(naphthalen-2-yl)ethyl]-2,4,9,15-tetraazatricyclo[9.4.0.0^{3,8}]pentadeca-1(15),3(8),4,6,11,13-hexaen-10-one], for which the half-inhibitory concentration (IC50) in experiment [3] was greater than 1000 nM. The compound `CCN1c2ncc(/C=C/c3ccncc3)cc2C(=O)N(C)c2cccnc21` [5,11-Dihydro-11-ethyl-5-methyl-8-[trans-2-(4-pyridyl)ethen-1-yl]-6H-dipyrido[3,2-b:2 ,3-e][1,4]diazepin-6-one] had an IC50 in experiment [2] greater than 1000 nM.

What is called IC50 is the point on the concentration scale where inhibition reaches its midpoint.
